Results from patent EP4813990A1, “COMPOUND FOR TREATING CANCER” (INNOLAKE BIOPHARMA (HANGZHOU) CO., LTD., priority 2023, dated 2025).
Where two headings read alike, the source gives them in different places.

Key:
CYP2B6 [1] = target: T1, CYP2B6 (Homo sapiens, UniProt P20813); assay: Human liver microsome CYP inhibition (direct and time-dependent); assay type: in vitro ADME
T1 construct: In vitro human liver microsome tests; from tissue; host or cells: human liver microsomes
Source text: (§1) The non-dilution method was used to determine the time-dependent inhibitory effect of ILB-2109 on human liver microsomal cytochrome P450 isoenzymes (CYP1A2, CYP2B6, CYP2C8, CYP2C9, CYP2C19, CYP2D6 and CYP3A4). Generally, an IC50 shift multiple ≥1.5 was taken as the judgment standard for time-dependent inhibitors.

CYP1A2 [2] = target: T2, CYP1A2 (Homo sapiens, UniProt P05177); assay: as above; assay type: in vitro ADME
T2 construct: In vitro human liver microsome tests; from tissue; host or cells: human liver microsomes
T2 sequence (P05177 whole entry): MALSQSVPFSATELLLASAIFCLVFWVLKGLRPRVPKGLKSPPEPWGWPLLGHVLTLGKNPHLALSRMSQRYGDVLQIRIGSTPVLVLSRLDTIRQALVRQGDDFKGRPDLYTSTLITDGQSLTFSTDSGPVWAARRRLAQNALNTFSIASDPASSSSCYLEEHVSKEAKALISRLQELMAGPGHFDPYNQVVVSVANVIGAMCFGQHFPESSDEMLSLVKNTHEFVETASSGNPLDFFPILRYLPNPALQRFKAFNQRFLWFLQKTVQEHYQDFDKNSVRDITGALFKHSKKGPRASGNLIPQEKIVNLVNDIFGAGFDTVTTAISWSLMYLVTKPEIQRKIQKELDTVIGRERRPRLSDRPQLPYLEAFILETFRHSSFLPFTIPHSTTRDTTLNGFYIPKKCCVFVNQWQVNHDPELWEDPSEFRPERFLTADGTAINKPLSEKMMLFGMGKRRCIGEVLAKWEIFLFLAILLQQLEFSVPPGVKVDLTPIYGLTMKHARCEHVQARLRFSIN
Source text: as §1

CYP2C8 = target: T3, CYP2C8 (Homo sapiens, UniProt P10632); assay: as above; assay type: in vitro ADME
T3 construct: In vitro human liver microsome tests; from tissue; host or cells: human liver microsomes
T3 sequence (P10632 whole entry): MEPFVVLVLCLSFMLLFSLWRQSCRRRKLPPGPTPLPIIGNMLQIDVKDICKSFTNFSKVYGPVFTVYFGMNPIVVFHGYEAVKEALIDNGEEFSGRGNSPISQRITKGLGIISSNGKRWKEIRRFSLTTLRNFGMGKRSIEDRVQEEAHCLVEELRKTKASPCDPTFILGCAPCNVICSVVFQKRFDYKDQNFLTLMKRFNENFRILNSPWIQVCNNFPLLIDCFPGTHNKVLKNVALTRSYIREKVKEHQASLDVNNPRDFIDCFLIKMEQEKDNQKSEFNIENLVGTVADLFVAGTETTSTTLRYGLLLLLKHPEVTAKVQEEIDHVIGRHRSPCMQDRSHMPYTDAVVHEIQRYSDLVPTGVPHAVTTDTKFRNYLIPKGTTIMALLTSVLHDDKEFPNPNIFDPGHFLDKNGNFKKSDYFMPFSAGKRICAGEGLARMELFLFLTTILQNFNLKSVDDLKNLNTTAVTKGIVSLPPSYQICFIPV
Source text: as §1

CYP2C19 = target: T4, CYP2C19 (Homo sapiens, UniProt P33261); assay: as above; assay type: in vitro ADME
T4 construct: In vitro human liver microsome tests; from tissue; host or cells: human liver microsomes
T4 sequence (P33261 whole entry): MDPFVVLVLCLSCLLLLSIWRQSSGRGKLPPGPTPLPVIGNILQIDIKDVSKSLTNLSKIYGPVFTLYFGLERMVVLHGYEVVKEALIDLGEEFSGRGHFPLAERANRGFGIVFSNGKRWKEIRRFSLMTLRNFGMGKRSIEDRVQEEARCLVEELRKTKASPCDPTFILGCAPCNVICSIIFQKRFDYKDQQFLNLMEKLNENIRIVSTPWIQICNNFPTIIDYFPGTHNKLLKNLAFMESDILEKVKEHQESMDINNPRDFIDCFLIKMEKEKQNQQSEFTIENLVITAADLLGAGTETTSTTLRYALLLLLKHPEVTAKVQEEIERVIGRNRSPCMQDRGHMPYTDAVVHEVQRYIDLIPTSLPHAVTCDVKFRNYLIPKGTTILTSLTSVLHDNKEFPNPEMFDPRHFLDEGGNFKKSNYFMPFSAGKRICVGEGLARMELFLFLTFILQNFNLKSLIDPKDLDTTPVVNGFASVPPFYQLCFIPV
Source text: as §1

CYP2C9 = target: T5, CYP2C9 (Homo sapiens, UniProt P11712); assay: as above; assay type: in vitro ADME
T5 construct: In vitro human liver microsome tests; from tissue; host or cells: human liver microsomes
T5 sequence (P11712 whole entry): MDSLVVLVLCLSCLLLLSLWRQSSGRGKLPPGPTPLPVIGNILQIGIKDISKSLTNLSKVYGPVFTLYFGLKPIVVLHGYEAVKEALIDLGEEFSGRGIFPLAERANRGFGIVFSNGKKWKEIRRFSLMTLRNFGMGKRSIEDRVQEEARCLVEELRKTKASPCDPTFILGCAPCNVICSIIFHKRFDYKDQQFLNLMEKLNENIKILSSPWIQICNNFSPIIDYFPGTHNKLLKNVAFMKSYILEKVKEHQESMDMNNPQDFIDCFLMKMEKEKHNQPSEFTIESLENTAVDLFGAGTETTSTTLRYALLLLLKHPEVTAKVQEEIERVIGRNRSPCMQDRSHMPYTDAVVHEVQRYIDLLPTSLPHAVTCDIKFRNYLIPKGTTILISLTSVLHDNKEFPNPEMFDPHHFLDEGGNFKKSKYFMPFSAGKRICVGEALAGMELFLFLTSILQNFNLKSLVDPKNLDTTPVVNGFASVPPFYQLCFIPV
Source text: as §1

CYP3A4 [3] = target: T6, CYP3A4 (Homo sapiens, UniProt P08684); assay: as above; assay type: in vitro ADME; details: for IC50: human liver microsomes
T6 construct: In vitro human liver microsome tests; from tissue; host or cells: human liver microsomes
T6 sequence (P08684 2-503): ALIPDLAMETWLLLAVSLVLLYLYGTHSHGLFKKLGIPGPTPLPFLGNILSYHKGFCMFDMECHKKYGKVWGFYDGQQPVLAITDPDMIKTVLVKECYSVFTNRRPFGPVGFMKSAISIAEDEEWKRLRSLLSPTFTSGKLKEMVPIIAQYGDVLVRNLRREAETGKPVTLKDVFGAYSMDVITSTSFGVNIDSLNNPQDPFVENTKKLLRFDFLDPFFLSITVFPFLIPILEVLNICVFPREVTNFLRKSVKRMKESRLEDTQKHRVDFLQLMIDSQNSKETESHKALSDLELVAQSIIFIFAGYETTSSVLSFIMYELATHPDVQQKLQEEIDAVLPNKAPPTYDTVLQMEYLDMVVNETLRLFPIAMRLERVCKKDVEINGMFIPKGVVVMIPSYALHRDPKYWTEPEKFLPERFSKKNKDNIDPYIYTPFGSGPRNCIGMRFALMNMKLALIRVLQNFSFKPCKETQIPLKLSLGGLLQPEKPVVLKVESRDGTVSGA
Source text: as §1

CYP2D6 = target: T7, CYP2D6 (Homo sapiens, UniProt P10635); assay: as above; assay type: in vitro ADME
T7 construct: In vitro human liver microsome tests; from tissue; host or cells: human liver microsomes
T7 sequence (P10635 whole entry): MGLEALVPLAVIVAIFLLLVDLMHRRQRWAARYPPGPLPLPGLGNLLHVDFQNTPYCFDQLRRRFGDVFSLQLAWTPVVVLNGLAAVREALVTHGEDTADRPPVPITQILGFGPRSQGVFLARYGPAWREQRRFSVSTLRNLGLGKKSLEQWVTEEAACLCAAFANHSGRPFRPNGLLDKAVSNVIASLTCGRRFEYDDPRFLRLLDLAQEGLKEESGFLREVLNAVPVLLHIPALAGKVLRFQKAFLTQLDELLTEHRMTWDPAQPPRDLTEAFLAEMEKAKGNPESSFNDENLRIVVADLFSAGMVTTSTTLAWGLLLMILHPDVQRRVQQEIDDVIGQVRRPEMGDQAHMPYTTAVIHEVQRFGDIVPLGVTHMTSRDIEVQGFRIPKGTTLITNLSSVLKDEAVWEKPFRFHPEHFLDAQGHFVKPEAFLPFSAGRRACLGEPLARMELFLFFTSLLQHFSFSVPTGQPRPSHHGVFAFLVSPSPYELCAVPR
Source text: as §1

A3 receptor = A3 receptor (Homo sapiens, UniProt P0DMS8); assay: Adenosine receptor selectivity, A2aR compared with A3; assay type: binding
A3 receptor, sequence (P0DMS8 whole entry): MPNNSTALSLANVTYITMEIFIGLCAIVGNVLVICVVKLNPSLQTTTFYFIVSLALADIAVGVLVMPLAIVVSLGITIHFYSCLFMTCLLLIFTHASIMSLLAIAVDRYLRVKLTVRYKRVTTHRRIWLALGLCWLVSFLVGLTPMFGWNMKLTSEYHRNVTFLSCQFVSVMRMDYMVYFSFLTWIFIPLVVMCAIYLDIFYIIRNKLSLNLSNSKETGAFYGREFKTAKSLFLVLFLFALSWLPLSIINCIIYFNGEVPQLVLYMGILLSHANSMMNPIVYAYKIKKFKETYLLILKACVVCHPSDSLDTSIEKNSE
Source text: (§2) Meanwhile, ILB-2109 had high selectivity for A2aR (compared with A1, A2b and A3 receptors, the selectivity was 18.9 times, 40.7 times and 3424.7 times respectively).

[4] = test system: histidine-deficient Salmonella typhimurium strains (TA97a, TA98, TA100, TA102 and TA1535); assay: AMES reverse mutation test; assay type: cell-based; details: 128 ~ 5000 µg/plate, with or without S9 metabolic activation system
Source text: This test detected the ability of ILB-2109 to induce reverse mutation of histidine-deficient Salmonella typhimurium strains (TA97a, TA98, TA100, TA102 and TA1535) with and without exogenous metabolic activation system. […] Therefore, under the research conditions, the Ames test result was negative.

[5] = SD rat absorption test (pharmacokinetics); assay type: in vivo, SD rats; details: for bioavailability / AUC(0-t) / half-life / clearance / Vd / Cmax: Sprague-Dawley, rat, plasma; for bioavailability: oral 12 mg/kg; for half-life: read-out: elimination half-life (T1/2) (converted); for clearance: read-out: plasma clearance rate (CL); for Vd: read-out: steady-state apparent volume of distribution (Vdss); for Cmax: read-out: peak concentrations (Cmax); for ratio of AUC0-last on Day 7 to Day 1 / ratio of Cmax on Day 7 to Day 1: continuous oral 40 mg/kg for 7 days
Procedure: According to the Technical Guidelines for Non-clinical Pharmacokinetic Studies of Drugs and the results of in vitro metabolic species difference studies, liquid chromatography-tandem mass spectrometry (LC-MS/MS) was used in this pharmacokinetic study to fully verify the analytical method for the determination of ILB-2109 content in plasma (EDTA-K2 anticoagulation) of Sprague-Dawley rats and cynomolgus monkeys. The linear range of the method was 20.0~20000 nM. The precision, accuracy and other indicators of the method were confirmed to comply with the relevant regulations of biological sample detection.
This experiment studied the pharmacokinetic properties of ILB-2109 in female and male SD rats, including 1) 2 mg/kg single intravenous injection administration study; 2) 12, 40 and 120 mg/kg oral dose escalation study; 3) 40 mg/kg repeated oral administration BID for 7 consecutive days.

A2b receptor = A2b receptor (Homo sapiens, UniProt P29275); assay: Adenosine receptor selectivity, A2aR compared with A2b; assay type: binding
A2b receptor, sequence (P29275 whole entry): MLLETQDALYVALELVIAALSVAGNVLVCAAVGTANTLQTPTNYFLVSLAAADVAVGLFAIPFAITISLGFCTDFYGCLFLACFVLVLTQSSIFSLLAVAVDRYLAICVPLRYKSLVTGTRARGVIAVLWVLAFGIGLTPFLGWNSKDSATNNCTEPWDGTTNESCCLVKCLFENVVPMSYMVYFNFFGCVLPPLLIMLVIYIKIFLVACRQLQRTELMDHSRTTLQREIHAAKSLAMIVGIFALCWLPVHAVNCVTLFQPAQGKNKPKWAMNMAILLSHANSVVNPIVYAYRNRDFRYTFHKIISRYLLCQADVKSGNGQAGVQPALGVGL
Source text: as §2

[6] = test system: CYP3A, CYP2B6, CYP2C8, CYP2C9, CYP1A2, CYP2C19 and CYP2D6; assay: Metabolic enzyme phenotyping for production of metabolite M4; assay type: in vitro ADME
[7] = In vivo metabolism in cynomolgus monkeys (plasma profile); details: male and female monkeys
Source text: In in vivo metabolism experiments of cynomolgus monkeys, the relative abundance of parent drug ILB-2109 in plasma samples of male and female monkeys was more than 83%, which was the main component in plasma samples. ILB-2109 was mainly metabolized via oxidation, dehydrogenation and glucuronidation in monkey plasma.

[8] = Excretion of total radioactivity in intact rats; assay type: in vivo
Procedure: Excretion mainly occurred within 48 hours after administration, accounting for about 88.01% of the administered dose.

CYP2B6 [9] = assay: In vitro hepatocyte induction assay; assay type: in vitro ADME
Source text: (§3) In vitro hepatocyte induction assay was used to evaluate the effect of ILB-2109 on the enzyme activity and gene expression level of cytochrome P450 isoenzymes CYP1A2, CYP2B6 and CYP3A4.

CYP3A4 [10] = assay: In vitro hepatocyte induction assay; assay type: in vitro ADME; details: for induction, gene expression level: hepatocytes
Source text: as §3

CYP1A2 [11] = assay: In vitro hepatocyte induction assay; assay type: in vitro ADME
Source text: as §3

[12] = non-dilution method, IC50 shift multiple ≥1.5 as judgment standard
[13] = female SD rats, single intravenous injection 2 mg/kg
[14] = female SD rats, single oral 12 mg/kg
[15] = female SD rats, single oral 40 mg/kg
[16] = female SD rats, single oral 120 mg/kg
[17] = male SD rats, single intravenous injection 2 mg/kg
[18] = male SD rats, single oral 12 mg/kg
[19] = male SD rats, single oral 40 mg/kg
[20] = male SD rats, single oral 120 mg/kg
[21] = 0-168 hours after single oral administration
[22] = hepatocytes, 0.200, 2.00 or 20.0 µM

T1 sequence (P20813 whole entry): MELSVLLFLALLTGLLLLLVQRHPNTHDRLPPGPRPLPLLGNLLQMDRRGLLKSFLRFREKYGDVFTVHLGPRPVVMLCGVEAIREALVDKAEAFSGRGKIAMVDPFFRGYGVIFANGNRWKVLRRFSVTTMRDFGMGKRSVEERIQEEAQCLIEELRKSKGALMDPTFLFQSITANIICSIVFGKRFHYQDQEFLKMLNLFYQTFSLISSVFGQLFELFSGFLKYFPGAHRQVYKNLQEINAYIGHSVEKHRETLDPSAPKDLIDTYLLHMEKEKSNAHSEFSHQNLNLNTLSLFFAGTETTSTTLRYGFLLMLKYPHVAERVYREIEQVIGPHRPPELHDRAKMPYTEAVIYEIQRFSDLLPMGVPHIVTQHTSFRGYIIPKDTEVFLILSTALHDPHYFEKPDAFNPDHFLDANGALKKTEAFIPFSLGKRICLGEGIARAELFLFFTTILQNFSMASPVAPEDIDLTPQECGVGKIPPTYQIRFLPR

Cc1cc(-c2c(-c3ccccc3)nc(N)n3nc(CO)nc23)cc(C(F)(F)F)n1 [ILB-2109]
IC50 (CYP2B6 [1]; human liver microsomes): > 100 µM
time-dependent inhibitory effect (CYP2B6 [1]; [12]): no time-dependent inhibitory effect
IC50 (CYP1A2 [2]; human liver microsomes): > 100 µM
time-dependent inhibitory effect (CYP1A2 [2]; [12]): no time-dependent inhibitory effect
IC50 (CYP2C8; human liver microsomes): 33.9 µM
time-dependent inhibitory effect (CYP2C8; [12]): no time-dependent inhibitory effect
IC50 (CYP2C19; human liver microsomes): 91.6 µM
time-dependent inhibitory effect (CYP2C19; [12]): no time-dependent inhibitory effect
IC50 (CYP2C9; human liver microsomes): 57.2 µM
time-dependent inhibitory effect (CYP2C9; [12]): no time-dependent inhibitory effect
IC50 (CYP3A4 [3]; midazolam as substrate): > 100 µM
IC50 (CYP3A4 [3]; testosterone as substrate): > 100 µM
time-dependent inhibitory effect (CYP3A4 [3]; [12]): no time-dependent inhibitory effect
IC50 (CYP2D6; human liver microsomes): > 100 µM
time-dependent inhibitory effect (CYP2D6; [12]): no time-dependent inhibitory effect
selectivity for A2aR compared with A3 receptor (A3 receptor): 3424.7 times
Ames test result [4]: negative
tolerability in the PK study ([5]; SD rats, all dose regimens of the absorption test): tolerated the compound well without any abnormal manifestations
bioavailability ([5]; female SD rats): 67.8%
AUC(0-t) [5, 13]: 60.3 ± 5.18 µM·h
half-life [5, 13]: 5.71 ± 1.25 h
clearance [5, 13]: 1.33 ± 0.135 mL/min/kg
Vd [5, 13]: 0.526 ± 0.0558 L/kg
AUC(0-t) [5, 14]: 247 ± 22.1 µM·h
Cmax [5, 14]: 33.7 ± 2.8 µM
AUC(0-t) [5, 15]: 915 ± 169 µM·h
Cmax [5, 15]: 124 ± 17.5 µM
AUC(0-t) [5, 16]: 1560 ± 205 µM·h
Cmax [5, 16]: 155 ± 24.3 µM
bioavailability ([5]; male SD rats): 73%
AUC(0-t) [5, 17]: 13.3 ± 2.26 µM·h
half-life [5, 17]: 1.26 ± 0.361 h
clearance [5, 17]: 6.3 ± 1.04 mL/min/kg
Vd [5, 17]: 0.681 ± 0.0975 L/kg
AUC(0-t) [5, 18]: 58.9 ± 19.2 µM·h
Cmax [5, 18]: 23.8 ± 2.23 µM
AUC(0-t) [5, 19]: 296 ± 54.1 µM·h
Cmax [5, 19]: 63.3 ± 1.65 µM
AUC(0-t) [5, 20]: 792 ± 167 µM·h
Cmax [5, 20]: 118 ± 19.8 µM
peak time [5, 14]: 2.33 ± 1.53 h
peak time [5, 15]: 3.33 ± 1.15 h
peak time [5, 16]: 2.67 ± 1.15 h
dose proportionality of systemic exposure (AUC0-last) and Cmax ([5]; female and male rats, oral dose range 12 to 40 mg/kg): increased basically proportionally to the dose
ratio of AUC0-last on Day 7 to Day 1 ([5]; female rats): 0.669
ratio of Cmax on Day 7 to Day 1 ([5]; female rats): 0.899
peak time [5, 18]: 0.667 ± 0.289 h
peak time [5, 19]: 1.33 ± 0.577 h
peak time [5, 20]: 2.67 ± 1.15 h
ratio of AUC0-last on Day 7 to Day 1 ([5]; male rats): 0.584
ratio of Cmax on Day 7 to Day 1 ([5]; male rats): 0.673
ratio of AUC0-last between female and male rats ([5]; oral single dose 12 mg/kg): 4.19
ratio of AUC0-last between female and male rats ([5]; oral single dose 40 mg/kg): 3.09
ratio of AUC0-last between female and male rats ([5]; oral single dose 120 mg/kg): 1.97
selectivity for A2aR compared with A2b receptor (A2b receptor): 40.7 times
role of CYP2B6, CYP2C8 and CYP2C9 in production of metabolite M4 [6]: may play a secondary role
role of other isoenzymes (CYP1A2, CYP2C19 and CYP2D6) in production of metabolite M4 [6]: little or no effect
relative abundance of parent drug in plasma samples [7]: more than 83%
average of total radioactivity recovery [8, 21]: 91.74%
cage washing and cleaning fluid, share of the administered dose [8, 21]: 2.75%
feces, share of the administered dose [8, 21]: 75.17%
total urinary excretion, share of the administered dose [8, 21]: 13.81%
excretion within 48 hours, share of the administered dose ([8]; within 48 hours after administration): about 88.01%
induction, gene expression level (CYP2B6 [9]; hepatocytes, 20.0 µM, Donor 1): inducer
induction, enzyme activity (CYP2B6 [9]; [22]): not an inducer
induction, gene expression level (CYP3A4 [10]; 2.00 µM, Donor 1 and Donor 3): inducer
induction, gene expression level (CYP3A4 [10]; 20.0 µM, Donor 1, 2 and 3): inducer
induction, enzyme activity (CYP3A4 [10]; [22]): not an inducer
induction, gene expression level (CYP1A2 [11]; hepatocytes, 20.0 µM, Donor 1): inducer
induction, enzyme activity (CYP1A2 [11]; [22]): not an inducer
